The values that follow come from paper PMC10330001 (Chemistry (Weinheim an der Bergstrasse, Germany), 2023).

For one experiment, the target named is T1, HCoV-HKU1 main protease (Human coronavirus HKU1, UniProt P0C6X2).
T1 sequence (P0C6X2 3335-3637 limits assumed): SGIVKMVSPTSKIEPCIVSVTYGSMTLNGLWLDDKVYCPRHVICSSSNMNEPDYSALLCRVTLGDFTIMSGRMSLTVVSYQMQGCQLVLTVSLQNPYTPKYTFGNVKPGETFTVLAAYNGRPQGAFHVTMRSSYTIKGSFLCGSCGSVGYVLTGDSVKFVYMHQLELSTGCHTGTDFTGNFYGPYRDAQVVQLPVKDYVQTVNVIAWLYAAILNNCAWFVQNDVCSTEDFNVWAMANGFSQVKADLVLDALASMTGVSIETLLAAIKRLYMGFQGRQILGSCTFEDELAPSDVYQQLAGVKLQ
Nature of the experiment: biochemical.

The next experiment concerns the target HCoV-NL63 main protease (Human coronavirus NL63, UniProt P0C6X5). Nature of the experiment: biochemical.
The subject of experiment [1] is SARS-CoV-2 (USA-WA1/2020). The settings on record: read-out: antiviral EC50; comparison value for the Caco2-hACE2 result; ref 9b; cited from earlier work.
The target in experiment [2] is T2, SARS-CoV-2 Mpro (Severe acute respiratory syndrome coronavirus 2, UniProt P0DTD1). Kind of experiment: biochemical. It is filed as biochemical.
The test system of experiment [3] is SARS-CoV-2 (USA-WA1/2020). It is filed as cell-based.
The next experiment addresses T3, HCoV-OC43 main protease (Human coronavirus OC43, UniProt P0C6X6).
T3 sequence (P0C6X6 3247-3549 limits assumed): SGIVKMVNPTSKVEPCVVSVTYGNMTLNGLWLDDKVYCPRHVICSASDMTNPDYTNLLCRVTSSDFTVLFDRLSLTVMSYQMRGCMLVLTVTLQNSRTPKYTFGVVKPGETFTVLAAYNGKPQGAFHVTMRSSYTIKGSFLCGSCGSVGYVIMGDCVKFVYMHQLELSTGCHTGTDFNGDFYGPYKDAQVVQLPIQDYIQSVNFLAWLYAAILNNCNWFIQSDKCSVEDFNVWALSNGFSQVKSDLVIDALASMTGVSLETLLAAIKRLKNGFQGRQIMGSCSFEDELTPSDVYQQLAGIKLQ
Kind of experiment: biochemical.

The target of another experiment is SARS-CoV main protease (Severe acute respiratory syndrome coronavirus, UniProt P0C6X7). Nature of the experiment: biochemical.
Experiment [4] relates to SARS-CoV-2 (USA-WA1/2020). Kind of experiment: microbe, parasite or virus in culture. It is filed as cell-based.
Experiment [5] has as its target T2, SARS-CoV-2 Mpro. Kind of experiment: cell-based.
Another experiment deals with HCoV-229E main protease (Human coronavirus 229E, UniProt P0C6X1). Kind of experiment: biochemical.
The next experiment concerns the target MERS-CoV main protease (Middle East respiratory syndrome-related coronavirus, UniProt K9N7C7). Kind of experiment: biochemical.

Read-outs that look alike come from different tables or passages of the source.

HCoV-NL63 main protease, sequence (P0C6X5 2940-3242 limits assumed): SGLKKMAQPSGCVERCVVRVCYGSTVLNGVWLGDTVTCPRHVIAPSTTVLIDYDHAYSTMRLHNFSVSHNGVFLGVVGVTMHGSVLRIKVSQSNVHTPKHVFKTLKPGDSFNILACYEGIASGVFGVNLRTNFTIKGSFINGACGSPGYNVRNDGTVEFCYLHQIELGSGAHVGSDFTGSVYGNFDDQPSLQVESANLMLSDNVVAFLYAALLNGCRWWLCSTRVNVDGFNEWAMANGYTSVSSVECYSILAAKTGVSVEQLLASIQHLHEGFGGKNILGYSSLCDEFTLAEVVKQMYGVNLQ
HCoV-229E main protease, sequence (P0C6X1 2966-3267): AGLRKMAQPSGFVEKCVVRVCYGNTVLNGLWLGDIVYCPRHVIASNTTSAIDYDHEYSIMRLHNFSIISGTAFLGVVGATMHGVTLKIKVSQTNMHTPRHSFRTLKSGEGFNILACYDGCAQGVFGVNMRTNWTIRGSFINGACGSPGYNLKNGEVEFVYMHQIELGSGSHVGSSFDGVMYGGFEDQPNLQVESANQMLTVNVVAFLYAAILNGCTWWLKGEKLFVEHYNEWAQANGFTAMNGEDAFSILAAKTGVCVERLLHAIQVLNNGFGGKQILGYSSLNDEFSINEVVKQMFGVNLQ
MERS-CoV main protease, sequence (K9N7C7 3248-3553 limits assumed): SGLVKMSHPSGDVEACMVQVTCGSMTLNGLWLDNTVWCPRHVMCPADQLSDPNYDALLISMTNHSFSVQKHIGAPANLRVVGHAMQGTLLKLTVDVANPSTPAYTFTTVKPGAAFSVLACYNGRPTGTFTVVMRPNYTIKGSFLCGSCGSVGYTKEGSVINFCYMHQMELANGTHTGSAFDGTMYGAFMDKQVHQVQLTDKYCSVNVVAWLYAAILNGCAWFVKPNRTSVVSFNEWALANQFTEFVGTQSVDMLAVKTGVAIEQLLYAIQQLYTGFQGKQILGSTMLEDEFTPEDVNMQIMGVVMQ

As to `CC(C)C[C@H](NC(=O)OCc1ccccc1)C(=O)N[C@@H](CC1CCNC1=O)C(O)S(=O)(=O)O` (stereo partly drawn) [GC376, reference compound], the IC50 at HCoV-HKU1 main protease (read-out: HKU1 IC50) was found to be 0.012 ± 0.03 µM; at HCoV-NL63 main protease (read-out: HCoV-NL63 IC50), 0.12 ± 0.02 µM. Further, the EC50 in experiment [1] is 2.9 µM.
Consider `CC(C)C[C@@H](C(=O)N[C@H](C=O)C[C@@H]1CCNC1=O)N1C[C@@H](NC(=O)OCc2ccccc2)CC1=O` [M-1-1, Benzyl ((S)-1-((S)-4-methyl-1-oxo-1-(((S)-1-oxo-3-((S)-2-oxopyrrolidin-3-yl)propan-2-yl)amino)pentan-2-yl)-5-oxopyrrolidin-3-yl) carbamate], for which the IC50 at SARS-CoV-2 Mpro [2] (read-out: SARS-CoV-2 IC50) came out at 0.51 µM.
As for `CC(C)C[C@@H](C(=O)N[C@H](C=O)C[C@@H]1CCNC1=O)N1C[C@@H](NC(=O)OCc2ccccc2)CCC1=O` [M-1-3, Benzyl ((S)-1-((S)-4-methyl-1-oxo-1-(((S)-1-oxo-3-((S)-2-oxopyrrolidin-3-yl)propan-2-yl)amino)pentan-2-yl)-6-oxopiperidin-3-yl)carbamate], the IC50 on SARS-CoV-2 Mpro [2] came out at 0.08 ± 0.01 µM; on HCoV-HKU1 main protease, 0.033 ± 0.01 µM; against HCoV-OC43 main protease it was 0.71 ± 0.02 µM; against SARS-CoV main protease, 0.16 ± 0.01 µM; at HCoV-NL63 main protease, 0.89 ± 0.01 µM; against HCoV-229E main protease, 0.062 ± 0.01 µM. In addition, the half-inhibitory concentration (IC50) against MERS-CoV main protease turned out to be 0.41 ± 0.05 µM. Also, the antiviral activity entry in [3] and in experiment [4] was “not active” each time. Also, at SARS-CoV-2 Mpro [5], the EC50 was more than 60 µM.
Regarding `O=C[C@H](C[C@@H]1CCNC1=O)NC(=O)[C@H](CC1CCCCC1)N1C[C@@H](NC(=O)OCc2ccccc2)CCC1=O` [M-1-4, Benzyl ((S)-1-((S)-3-cyclohexyl-1-oxo-1-(((S)-1-oxo-3-((S)-2-oxopyrrolidin-3-yl)propan-2-yl)amino)propan-2-yl)-6-oxopiperidin-3-yl)carbamate], the IC50 stood at 0.95 ± 0.04 µM on SARS-CoV-2 Mpro [2]; 1.21 ± 0.2 µM against HCoV-HKU1 main protease; 3.67 ± 0.63 µM against HCoV-OC43 main protease; 0.73 ± 0.1 µM at SARS-CoV main protease; 9.58 ± 1.79 µM on HCoV-NL63 main protease; 0.61 ± 0.09 µM against HCoV-229E main protease. This compound also registered an IC50 on MERS-CoV main protease of more than 20 µM. The concentration for a half-maximal effect (EC50) is 19 µM in experiment [4] (Severe acute respiratory syndrome coronavirus 2, read-out: antiviral EC50) and 18 µM on SARS-CoV-2 Mpro [5].
Take `O=C[C@H](C[C@@H]1CCNC1=O)NC(=O)[C@H](Cc1cccc(F)c1)N1C[C@@H](NC(=O)OCc2ccccc2)CCC1=O` [M-1-5, Benzyl ((S)-1-((S)-3-(3-fluorophenyl)-1-oxo-1-(((S)-1-oxo-3-((S)-2-oxopyrrolidin-3-yl)propan-2-yl)amino)propan-2-yl)-6-oxopiperidin-3-yl)carbamate]: a half-maximal response on SARS-CoV-2 Mpro [5] (EC50) required 49.6 µM.
In the case of `O=C[C@H](C[C@@H]1CCNC1=O)NC(=O)[C@H](CC1CC1)N1C[C@@H](NC(=O)OCc2ccccc2)CCC1=O` [M-1-6, Benzyl ((S)-1-((S)-3-cyclopropyl-1-oxo-1-(((S)-1-oxo-3-((S)-2-oxopyrrolidin-3-yl)propan-2-yl)amino)propan-2-yl)-6-oxopiperidin-3-yl)carbamate], the IC50 at SARS-CoV-2 Mpro [2] was 0.08 ± 0.01 µM; against HCoV-HKU1 main protease it was 0.12 ± 0.02 µM; against HCoV-OC43 main protease, 0.18 ± 0.01 µM; on SARS-CoV main protease, 0.25 ± 0.02 µM; against HCoV-NL63 main protease it was 0.48 ± 0.06 µM; against HCoV-229E main protease, 0.18 ± 0.02 µM. For the same compound, the IC50 against MERS-CoV main protease was found to be 0.85 ± 0.21 µM. Further, the EC50 on SARS-CoV-2 Mpro [5] was more than 60 µM.
As to `CC(C)C[C@@H](C(=O)N[C@H](C=O)C[C@@H]1CCNC1=O)N1C[C@@H](NC(=O)OCc2cc(F)cc(F)c2)CCC1=O` [M-1-7, 3,5-difluorobenzyl ((S)-1-((S)-4-methyl-1-oxo-1-(((S)-1-oxo-3-((S)-2-oxopyrrolidin-3-yl)propan-2-yl)amino)pentan-2-yl)-6-oxopiperidin-3-yl)carbamate], 0.19 µM corresponded to half-maximal inhibition at SARS-CoV-2 Mpro [2] (IC50). For the same compound, at SARS-CoV-2 Mpro [5], it took 27.3 µM to reach a half-maximal effect (EC50).
With `CC(C)C[C@@H](C(=O)N[C@@H](C[C@@H]1CCNC1=O)C(=O)C(=O)NC1CC1)N1C[C@@H](NC(=O)OCc2ccccc2)CC1=O` [M-2-3, Benzyl ((S)-1-((S)-1-(((S)-4-(cyclopropylamino)-3,4-dioxo-1-((S)-2-oxopyrrolidin-3-yl)butan-2-yl)amino)-4-methyl-1-oxopentan-2-yl)-5-oxopyrrolidin-3-yl)carbamate], the IC50 stood at 1.31 ± 0.1 µM against SARS-CoV-2 Mpro [2]; 0.39 ± 0.03 µM against HCoV-HKU1 main protease; 0.12 ± 0.01 µM against HCoV-OC43 main protease; 2.26 ± 0.39 µM on SARS-CoV main protease; 0.83 ± 0.1 µM against HCoV-NL63 main protease; 0.69 ± 0.08 µM on HCoV-229E main protease. Moreover, the IC50 at MERS-CoV main protease is 8.02 ± 2.07 µM.
Regarding `CC(C)C[C@@H](C(=O)N[C@@H](C[C@@H]1CCNC1=O)C(=O)C(=O)NC1CC1)N1C[C@@H](NC(=O)OCc2ccccc2)CCC1=O` [M-2-5, Benzyl ((S)-1-((S)-1-(((S)-4-(cyclopropylamino)-3,4-dioxo-1-((S)-2-oxopyrrolidin-3-yl)butan-2-yl)amino)-4-methyl-1-oxopentan-2-yl)-6-oxopiperidin-3-yl) carbamate], at SARS-CoV-2 Mpro [2] (read-out: SARS-CoV-2 IC50), the IC50 came out at 3.58 µM.
Still for that read-out and setting: next, `O=C(N[C@H]1CCC(=O)N([C@@H](CC2CCCCC2)C(=O)N[C@@H](C[C@@H]2CCNC2=O)C(=O)C(=O)NC2CC2)C1)OCc1ccccc1` [M-2-6, Benzyl ((S)-1-((S)-3-cyclohexyl-1-(((S)-4-(cyclopropylamino)-3,4-dioxo-1-((S)-2-oxopyrrolidin-3-yl)butan-2-yl)amino)-1-oxopropan-2-yl)-6-oxopiperidin-3-yl) carbamate]: 4.43 µM; `O=C(N[C@H]1CCC(=O)N([C@@H](Cc2cccc(F)c2)C(=O)N[C@@H](C[C@@H]2CCNC2=O)C(=O)C(=O)NC2CC2)C1)OCc1ccccc1` [M-2-7, Benzyl ((S)-1-((S)-1-(((S)-4-(cyclopropylamino)-3,4-dioxo-1-((S)-2-oxopyrrolidin-3-yl)butan-2-yl)amino)-3-(3-fluorophenyl)-1-oxopropan-2-yl)-6-oxopiperidin-3-yl) carbamate]: 3.99 µM.
As to `O=C(N[C@H]1CCC(=O)N([C@@H](CC2CC2)C(=O)N[C@@H](C[C@@H]2CCNC2=O)C(=O)C(=O)NC2CC2)C1)OCc1ccccc1` [M-2-8, Benzyl ((S)-1-((S)-3-cyclopropyl-1-(((S)-4-(cyclopropylamino)-3,4-dioxo-1-((S)-2-oxopyrrolidin-3-yl)butan-2-yl)amino)-1-oxopropan-2-yl)-6-oxopiperidin-3-yl)carbamate], the IC50 at SARS-CoV-2 Mpro [2] was 2.14 ± 0.09 µM; against HCoV-HKU1 main protease it was 2.23 ± 0.46 µM; against HCoV-OC43 main protease, 2.6 ± 0.45 µM; against SARS-CoV main protease, 3.88 ± 0.67 µM; at HCoV-NL63 main protease, 10.8 ± 2.21 µM; at HCoV-229E main protease, 5.67 ± 0.49 µM. In addition, the IC50 against MERS-CoV main protease was more than 20 µM.
